How the values were obtained:
[1] = tested on: A2058 (ATCC, CRL-11147) cells; test: Cell viability assay (Cell Titre Glo, 72 hours) in A2058 cells; assay type: cell-based; conditions: Homo sapiens
Protocol: (§1) Example 31: Cell Viability Assays
(§2) Phthalazinone based modulators as described herein were dispensed into 384 well CulturPlates™ (PerkinElmer) using Echo 555 acoustic dispensing in 10-point dose response curves at a final top concentration of 30 μM following a 1 in 3 dilution series. A2058 (ATCC, CRL-11147) or PA1 (ECACC, 90013101) cells were added directly to a compound at a density of 5000 cells per well in a final volume of 50 μL and incubated for 72 hours at 37° C., 5% CO2. Viability was assessed using Cell Titre Glo® (Promega) according to the manufacturer's instructions (25 μL per well) and IC50 curves were generated for each inhibitor using IDBS ActivityBase data analysis software.

[2] = tested on: PA1 (ECACC, 90013101) cells; test: Cell viability assay (Cell Titre Glo, 72 hours) in PA1 cells; assay type: cell-based; conditions: Homo sapiens, PA-1
Protocol: as §1, §2

Work on `CCn1nc(C(=O)N2CCN(c3ncc(C#N)cc3OC)CC2)c2ccccc2c1=O` [Compound 93] yielded an IC50 [1] of 1 to 10 µM and an IC50 [2] of 1 to 10 µM.

`Cn1nc(C(=O)N2CCN(c3cccc(C4CC4)c3)CC2)c2ccccc2c1=O` [Compound 41] showed an IC50 [1] of no more than 1 µM and an IC50 [2] of no more than 1 µM.

`CCn1nc(C(=O)N2CCN(c3cccc4oc(=O)[nH]c34)CC2)c2ccccc2c1=O` [Compound 97] showed an IC50 [1] greater than 20 µM and an IC50 [2] of 10 to 20 µM.

`CCn1nc(C(=O)N2CCN(c3ccnc4ccoc34)CC2)c2ccccc2c1=O` [Compound 95] showed an IC50 [1] of no more than 1 µM and an IC50 [2] of no more than 1 µM.

Molecule `COc1cc(C#N)cc(N2CCN(C(=O)c3nn(C)c(=O)c4ccccc34)CC2)c1` [Compound 224, 3-methoxy-5-(4-(3-methyl-4-oxo-3,4-dihydrophthalazine-1-carbonyl)piperazin-1-yl)benzonitrile] has an IC50 [1] of no more than 1 µM and an IC50 [2] of no more than 1 µM.

For `COc1cncnc1N1CCN(C(=O)c2nn(C)c(=O)c3ccccc23)CC1` [Compound 22], the IC50 [1] was greater than 20 µM and the IC50 [2] was greater than 20 µM.

`COc1ccc(C2(C)CCN(C(=O)c3nn(C)c(=O)c4ccccc34)CC2)cc1` [Compound 248, 4-(4-(4-methoxyphenyl)-4-methylpiperidine-1-carbonyl)-2-methylphthalazin-1(2H)-one] showed an IC50 [1] of 1 to 10 µM and an IC50 [2] of 10 to 20 µM.

Molecule `Cn1nc(C(=O)N2CCN(c3ccccc3C3CC3)CC2)c2ccncc2c1=O` [Compound 181] has an IC50 [1] of no more than 1 µM and an IC50 [2] of no more than 1 µM.

`Cn1nc(C(=O)N2CCN(c3ccc4c(c3)OCC4)CC2)c2ccccc2c1=O` [Compound 51] was tested, and the IC50 [1] was greater than 20 µM and the IC50 [2] was 10 to 20 µM.

`CCn1nc(C(=O)N2CCN(c3cnccc3OC)CC2)c2ccccc2c1=O` [Compound 118] gave an IC50 [1] of no more than 1 µM and an IC50 [2] of no more than 1 µM.

Work on `CCn1nc(C(=O)N2CCN(c3cccc4c3OC(C)(C)C4)CC2)c2ccccc2c1=O` [Compound 96] yielded an IC50 [1] of 1 to 10 µM and an IC50 [2] of no more than 1 µM.

In the case of `CCn1nc(C(=O)N2CCN(c3ccncc3C3CC3)CC2)c2ccccc2c1=O` [Compound 115], the IC50 [1] is reported as no more than 1 µM and the IC50 [2] is reported as no more than 1 µM.

With `COc1cccnc1N1CCN(C(=O)c2nn(C)c(=O)c3ccccc23)CC1` [Compound 14] the IC50 [1] was 1 to 10 µM and the IC50 [2] was no more than 1 µM.

With `CCn1nc(C(=O)N2CCN(c3ccc(OCCOC)cc3Cl)CC2)c2ccccc2c1=O` [Compound 127] the IC50 [1] was greater than 20 µM and the IC50 [2] was greater than 20 µM.

With `Cn1nc(C(=O)N2CCC(c3ccccc3)CC2)c2ccccc2c1=O` [Compound 2] the IC50 [1] was 10 to 20 µM and the IC50 [2] was 1 to 10 µM.

`CCn1nc(C(=O)N2CCN(c3ncc(F)cc3C3CC3)CC2)c2ccccc2c1=O` [Compound 88] was tested, and the IC50 [1] was no more than 1 µM and the IC50 [2] was no more than 1 µM.

`COCc1cncc(N2CCN(C(=O)c3nn(C)c(=O)c4ccc(F)cc34)CC2)c1` [Compound 164] was tested, and the IC50 [1] was greater than 20 µM and the IC50 [2] was greater than 20 µM.

With `Cn1nc(C(=O)N2CCN(c3cncc(F)c3)CC2)c2ccccc2c1=O` [Compound 38] the IC50 [1] was 10 to 20 µM and the IC50 [2] was 1 to 10 µM.

`CCn1nc(C(=O)N2CCN(c3ccc(OC)nn3)CC2)c2ccccc2c1=O` [Compound 111] gave an IC50 [1] greater than 20 µM and an IC50 [2] greater than 20 µM.

Molecule `Cn1nc(C(=O)N2CCN(c3cc(Cl)cc(C#N)c3)CC2)c2cnccc2c1=O` [Compound 223] has an IC50 [1] of 1 to 10 µM and an IC50 [2] of no more than 1 µM.

`COc1ccc(F)c(N2CCN(C(=O)c3nn(C)c(=O)c4ccccc34)CC2)c1` [Compound 44] gave an IC50 [1] of no more than 1 µM and an IC50 [2] of no more than 1 µM.

With `Cc1cccc(N2CCN(C(=O)c3nn(C)c(=O)c4ccccc34)CC2)c1` [Compound 25] the IC50 [1] was no more than 1 µM and the IC50 [2] was no more than 1 µM.

`CCn1nc(C(=O)N2CCN(c3ccccc3OCCOC)CC2)c2ccccc2c1=O` [Compound 129] gave an IC50 [1] greater than 20 µM and an IC50 [2] greater than 20 µM.

Molecule `CCn1nc(C(=O)N2CCN(c3cc(C#N)ccc3C3CC3)CC2)c2cnccc2c1=O` [Compound 242] has an IC50 [1] of no more than 1 µM and an IC50 [2] of no more than 1 µM.

In the case of `Cn1nc(C(=O)N2CCN(c3ccnc(C4CC4)c3)CC2)c2ccccc2c1=O` [Compound 76], the IC50 [1] is reported as 10 to 20 µM and the IC50 [2] is reported as 1 to 10 µM.

`Cn1nc(C(=O)N2CCN(c3cncc(C(F)F)c3)CC2)c2ccccc2c1=O` [Compound 63] was tested, and the IC50 [1] was greater than 20 µM and the IC50 [2] was greater than 20 µM.

From patent US12465603B2, “Phthalazinone based modulators for the treatment of disease” (Soley Therapeutics, Inc., priority 2022, dated 2025)
